Reference: patent US8236809B2, “Substituted 1,2,3-triazolopyrimidines for the inhibition of NAD(P)H oxidases and platelet activation” (Vasopharm GmbH, priority 2004, dated 2012)

The molecules below were run on NAD(P)H oxidases (NOX) in HL-60 cells (assay: Assay of NOX activity: cytochrome C reduction in PMA-stimulated differentiated HL-60 cells). Settings: 100 U/ml superoxide dismutase, used as a control in some experiments.
Assay type: cell-based, human
Experimental: (§1) Measurement of cytochrome C-reduction was used to assess the NOX-activity in HL-60 cells.
(§2) The human acute myeloid leukemia cell line HL-60 (ECACC 98070106) was cultured in RPMI 1640 (Biochrom, Berlin, Germany) supplemented with 5% heat-inactivated calf serum, 2 mM glutamine (GLUTAMAX, Invitrogen, Karlsruhe, Germany), 100 U/ml penicillin (Sigma, Taufkirchen, Germany), and 100 μg/ml streptomycin (Sigma, Taufkirchen, Germany) at 37° C. under a humidified atmosphere of 5% CO2. Cells were maintained at 0.1−2.0×10^6 cells/ml. To induce myeloid differentiation, the cells were seeded to a density of 0.5×10^6 cells/ml and cultivated for 6 days in medium containing 1.25% (v/v) dimethylsulfoxide (DMSO). […]
(§3) E550 and E540 were measured once before stimulation of the cells on a micro-plate reader (Multiskan Spektrum, Thermo Electron Corporation, Dreieich, Germany). E540 was the isosbestic point and used to normalize absorbance at 550 nm (E550/E540). […]
(§4) The plate was shaken for 10 sec in the micro-plate reader and then incubated at 37° C. under a humidified atmosphere of 5% CO2. E550 and E540 were measured after 60 and 120 min.
(§5) For calculation, the absorbance at 550 nm was normalized to absorbance at the isosbestic point at 540 nm for each individual well. […] NOX-activities were expressed as % of the activity in PMA-stimulated control cells. […]

| Molecule | Inhibition of the signal by SOD [%] |
| --- | --- |
| SOD: superoxide dismutase from bovine erythrocytes, EC1.15.1.1, used as a control | > 95 |

What follows are molecules tested against NAD(P)H oxidases (NOX) in HL-60 cells (Homo sapiens, UniProt P04839) in the same assay as above. Settings: HL-60; DPI final conc. 10 μM, control inhibitor; 'usually'; read-out: Residual activity of DPI-treated cells (NOX activity as % of the activity in PMA-stimulated control cells).
NAD(P)H oxidases (NOX) in HL-60 cells (Homo sapiens, UniProt P04839), sequence (P04839 whole entry): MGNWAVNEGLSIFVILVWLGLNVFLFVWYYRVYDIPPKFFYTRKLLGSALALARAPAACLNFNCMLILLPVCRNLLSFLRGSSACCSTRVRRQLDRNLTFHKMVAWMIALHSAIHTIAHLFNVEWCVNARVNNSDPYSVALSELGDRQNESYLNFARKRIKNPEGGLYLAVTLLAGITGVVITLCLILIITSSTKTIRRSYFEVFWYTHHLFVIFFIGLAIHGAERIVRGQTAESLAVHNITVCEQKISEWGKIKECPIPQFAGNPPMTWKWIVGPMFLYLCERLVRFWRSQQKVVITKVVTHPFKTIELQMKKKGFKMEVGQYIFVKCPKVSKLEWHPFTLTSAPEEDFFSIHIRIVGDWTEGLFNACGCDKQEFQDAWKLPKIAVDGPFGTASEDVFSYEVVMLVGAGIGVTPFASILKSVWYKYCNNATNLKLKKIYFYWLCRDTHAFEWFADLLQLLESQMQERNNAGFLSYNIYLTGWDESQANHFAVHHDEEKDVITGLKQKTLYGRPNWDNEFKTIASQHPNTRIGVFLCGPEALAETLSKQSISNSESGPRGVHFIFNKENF
Assay type: cell-based
Experimental: as §1, §2, §3, §4, §5

| Molecule | activity at 10 µM [%] |
| --- | --- |
| c1ccc2c(c1)[I+]c1ccccc1-2 [DPI, Diphenyleneiodonium chloride] | < 10 |

The molecules below were run on platelets (assay: Inhibition of thrombin-induced (TRAP-6) platelet activation: P-Selectin expression on washed platelets, flow cytometry). Settings: Homo sapiens, 5 μmol/l compound, 1 min pre-incubation, washed platelets stimulated 2 min with TRAP-6, read-out: % Inhibition of activation (percent reduction of TRAP-6 induced P-Selectin expression).
Assay type: cell-based
Experimental: Expression of P-Selectin on the surface of platelets was used as a marker of platelet activation.
All experiments were performed with washed platelets (PRP). Fresh venous blood from healthy volunteers (40 ml) was collected into 10 ml of 5-fold CCD-solution (7 mM citric acid, 100 mM trisodium citrate, 140 mM glucose, 15 mM EGTA as anti-coagulant, pH 6.5). Platelet rich plasma was prepared by centrifugation at 300 g for 20 min. The supernatant was collected and incubated for 10 min at room temperature. Platelets were pelleted from the supernatant by a second centrifugation step at 500 g for 20 min. The pellet was resuspended in 5 ml HEPES buffer (145 in M NaCl, 5 mM KCl, 1 in M MgCl2, 10 mM glucose, 10 mM HEPES, pH 7.4). Platelet concentration was adjusted to 3×10^8 platelets/ml with HEPES buffer.
Washed platelets (0.2 ml) were silenced for 1 h at room temperature in siliconised reaction tubes. After pre-incubation with compounds of example 1-11 for 1 min the washed platelets were stimulated for 2 min with thrombin receptor activating peptide (TRAP-6, BACHEM Biochemicals, Heidelberg, Germany).
As a positive control, 0.2 ml of washed platelets were pre-incubated with 10 μM of the NO-releasing compound sodium nitroprussid (SNP, Sigma, Deisenhofen).
After incubation, 20 μl of the sample was pipetted to 10 μl of FITC-labelled anti-CD62P antibody (DAKO, Glostrup, Denmark) and incubated for 15 min in the dark. After incubation the samples were diluted with 1.5 ml of phosphate buffered saline and immediately measured on a cytometer.
For background substraction, one sample was incubated with 10 μl of FITC-labelled un-specific mouse IgG1 (DAKO, Glostrup, Denmark).
For cytometry the Becton-Dickinson FACS-Calibur instrument (settings: FSC: E00; SSC: 337 V; FL-1:600 V) was used. For each measurement 20000 cells were analysed. Results were obtained as mean fluorescence intensity (MFI) calculated using the CellQuest program (Ver. 1.0; Becton-Dickinson).
Inhibition of platelet activation is given as percent reduction of TRAP-6 induced P-Selectin expression in the presence of 5 μmol/l of examples 1-11: […]

| Molecule | inhibition at 5 µM [%] |
| --- | --- |
| c1ccc(Cn2nnc3c(Sc4nc5ccccc5o4)ncnc32)cc1 [Example 1, 3-benzyl-7-(2-benzoxazolyl)thio-1,2,3-triazolo[4,5-d]pyrimidine] | 49 |
| c1ccc(Cn2nnc3c(Sc4ccccn4)ncnc32)cc1 [Example 2, 3-benzyl-7-(2-pyridyl)thio-1,2,3-triazolo-[4,5-d]pyrimidine] | 34 |
| c1ccc(Cn2nnc3c(Sc4ncco4)ncnc32)cc1 [Example 3, 3-benzyl-7-(2-oxazolyl)thio-1,2,3-triazolo[4,5-d]pyrimidine] | 55 |
| c1ccc(Cn2nnc3c(Sc4nccs4)ncnc32)cc1 [Example 4, 3-benzyl-7-(2-thiazolyl)thio-1,2,3-triazolo[4,5-d]pyrimidine] | 45 |
| c1ccc(Cn2nnc3c(Sc4ncc[nH]4)ncnc32)cc1 [Example 5, 3-benzyl-7-(2-imidazolyl)thio-1,2,3-triazolo[4,5-d]pyrimidine] | 21 |
| Cc1nc(Sc2nc3ccccc3o2)c2nnn(Cc3ccccc3)c2n1 [Example 6, 3-benzyl-7-(2-benzoxazolyl)thio-5-methyl-1,2,3-triazolo[4,5-d]pyrimidine] | 39 |
| Cn1nnc2c(Sc3nc4ccccc4o3)ncnc21 [Example 8, 7-(2-benzoxazolyl)thio-3-methyl-1,2,3-triazolo[4,5-d]pyrimidine] | 38 |
| c1ccc(-n2nnc3c(Sc4nc5ccccc5o4)ncnc32)cc1 [Example 9, 7-(2-benzoxazolyl)thio-3-phenyl-1,2,3-triazolo[4,5-d]pyrimidine] | 44 |
| COc1ccc(Cn2nnc3c(Sc4nc5ccccc5o4)ncnc32)cc1 [Example 10, 7-(2-benzoxazolyl)thio-3-p-methoxybenzyl-1,2,3-triazolo[4,5-d]pyrimidine] | 60 |
| Clc1ccccc1Cn1nnc2c(Sc3nc4ccccc4o3)ncnc21 [Example 11, 7-(2-benzoxazolyl)thio-3-o-chlorobenzyl-1,2,3-triazolo[4,5-d]pyrimidine] | 80 |
